Results taken from the supplement of paper PMC10307832.

What follows are cell lines tested with COc1cc([C@@H]2c3cc4c(cc3[C@@H](O[C@@H]3O[C@@H]5CO[C@@H](C)O[C@H]5[C@H](O)[C@H]3O)[C@H]3COC(=O)[C@H]23)OCO4)cc(OC)c1O [Etoposide] + CCNC(=O)c1noc(-c2cc(C(C)C)c(O)cc2O)c1-c1ccc(CN2CCOCC2)cc1 [Luminespib] (partner 0.01 µM) (assay: relative viability (nuclei count vs DMSO), 5 days (fraction); higher = more cells survive). Settings: first compound 1 µM.
Procedure, shortened: (§1)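 Lung cancer cell lines in 1536-well plates got either a single drug or a fixed anchor-drug dose together with five library-drug doses (not always all listed) in √10 steps, by pin tool, on the day after seeding. Nuclei were counted after 5 days, and relative viability is the treated-to-vehicle ratio of nuclei counts. Values are medians of duplicate plates.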

Row | Cell Line | relative viability
1 | NCI-H1792 | 0.248

These cell lines were tested with COc1cc([C@@H]2c3cc4c(cc3[C@@H](O[C@@H]3O[C@@H]5CO[C@@H](C)O[C@H]5[C@H](O)[C@H]3O)[C@H]3COC(=O)[C@H]23)OCO4)cc(OC)c1O [Etoposide] + CC(=O)Nc1cccc(-n2c(=O)n(C3CC3)c(=O)c3c(Nc4ccc(I)cc4F)n(C)c(=O)c(C)c32)c1 [Trametinib] (partner 0.02 µM) in the same assay as above. Settings: first compound 0.01 µM.
Procedure, shortened: as §1

Row | Cell Line | relative viability
2 | NCI-H2405 | 0.64
3 | SW 1573 | 0.609
4 | NCI-H1395 | 0.962
5 | 201T | 0.73
6 | NCI-H1915 | 0.275
7 | HCC-827 | 0.497
8 | LXF-289 | 0.742
9 | NCI-H2347 | 0.25
10 | NCI-H650 | 0.884
11 | CAL-12T | 0.238
12 | NCI-H1651 | 0.774
13 | EPLC-272H | 0.33
14 | NCI-H23 | 0.299
15 | NCI-H1792 | 0.47

Same assay, conditions: first compound 0.03162 µM

Row | Cell Line | relative viability
16 | NCI-H2405 | 0.728
17 | SW 1573 | 0.548
18 | NCI-H1395 | 1.15
19 | 201T | 0.76
20 | NCI-H1915 | 0.343
21 | HCC-827 | 0.525
22 | LXF-289 | 0.705
23 | NCI-H2347 | 0.301
24 | NCI-H650 | 0.951
25 | CAL-12T | 0.43
26 | NCI-H1651 | 0.783
27 | EPLC-272H | 0.284
28 | NCI-H23 | 0.342
29 | NCI-H1792 | 0.5

Same assay, conditions: first compound 0.1 µM

Row | Cell Line | relative viability
30 | NCI-H2405 | 0.505
31 | SW 1573 | 0.436
32 | NCI-H1395 | 0.839
33 | 201T | 0.707
34 | NCI-H1915 | 0.253
35 | HCC-827 | 0.315
36 | LXF-289 | 0.71
37 | NCI-H2347 | 0.25
38 | NCI-H650 | 0.681
39 | CAL-12T | 0.241
40 | NCI-H1651 | 0.558
41 | EPLC-272H | 0.254
42 | NCI-H23 | 0.309

Same assay, conditions: first compound 0.3162 µM

Row | Cell Line | relative viability
43 | NCI-H2405 | 0.544
44 | SW 1573 | 0.219
45 | NCI-H1395 | 1.01
46 | 201T | 0.602
47 | NCI-H1915 | 0.262
48 | HCC-827 | 0.23
49 | LXF-289 | 0.531
50 | NCI-H2347 | 0.269
51 | NCI-H650 | 0.527
52 | CAL-12T | 0.367
53 | NCI-H1651 | 0.362
54 | EPLC-272H | 0.267
55 | NCI-H23 | 0.265
56 | NCI-H1792 | 0.371

Same assay, conditions: first compound 1 µM

Row | Cell Line | relative viability
57 | NCI-H2405 | 0.4
58 | SW 1573 | 0.14
59 | NCI-H1395 | 0.808
60 | 201T | 0.544
61 | NCI-H1915 | 0.282
62 | HCC-827 | 0.187
63 | LXF-289 | 0.2
64 | NCI-H2347 | 0.278
65 | NCI-H650 | 0.195
66 | CAL-12T | 0.211
67 | NCI-H1651 | 0.165
68 | EPLC-272H | 0.267
69 | NCI-H23 | 0.24
70 | NCI-H1792 | 0.335

The cell lines below were run with CC1=C(N=C(N=C1N)[C@H](CC(=O)N)NC[C@@H](C(=O)N)N)C(=O)N[C@@H]([C@H](C2=CN=CN2)OC3C(C(C(C(O3)CO)O)O)OC4C(C(C(C(O4)CO)O)OC(=O)N)O)C(=O)N[C@H](C)[C@H]([C@H](C)C(=O)N[C@@H]([C@@H](C)O)C(=O)NCCC5=NC(=CS5)C6=NC(=CS6)C(=O)NCCC[S+](C)C)O [Bleomycin] + Cc1nc(NC(=O)N2CCC[C@H]2C(N)=O)sc1-c1ccnc(C(C)(C)C(F)(F)F)c1 [Alpelisib] (partner 2 µM) in the same assay as above. Settings: first compound 0.01 µM; main component drawn.
Procedure, shortened: as §1

Row | Cell Line | relative viability
71 | NCI-H2405 | 0.648
72 | SW 1573 | 0.643
73 | NCI-H1395 | 0.817
74 | 201T | 0.956
75 | NCI-H1915 | 0.896
76 | HCC-827 | 0.925
77 | LXF-289 | 0.923
78 | NCI-H2347 | 0.892
79 | NCI-H650 | 0.948
80 | CAL-12T | 0.666
81 | NCI-H1651 | 0.708
82 | EPLC-272H | 0.889
83 | NCI-H23 | 0.327
84 | NCI-H1792 | 0.631

Same assay, conditions: first compound 0.03162 µM; main component drawn

Row | Cell Line | relative viability
85 | NCI-H2405 | 0.704
86 | SW 1573 | 0.64
87 | NCI-H1395 | 0.812
88 | 201T | 0.949
89 | NCI-H1915 | 0.888
90 | HCC-827 | 1
91 | LXF-289 | 1.04
92 | NCI-H2347 | 1.05
93 | NCI-H650 | 1.03
94 | CAL-12T | 0.883
95 | NCI-H1651 | 0.71
96 | EPLC-272H | 0.847
97 | NCI-H23 | 0.298
98 | NCI-H1792 | 0.61

Same assay, conditions: first compound 0.1 µM; main component drawn

Row | Cell Line | relative viability
99 | NCI-H2405 | 0.615
100 | SW 1573 | 0.596
101 | NCI-H1395 | 0.669
102 | 201T | 0.96
103 | NCI-H1915 | 0.68
104 | HCC-827 | 0.852
105 | LXF-289 | 0.9
106 | NCI-H2347 | 0.997
107 | NCI-H650 | 0.827
108 | CAL-12T | 0.433
109 | NCI-H1651 | 0.733
110 | EPLC-272H | 0.797
111 | NCI-H23 | 0.192
112 | NCI-H1792 | 0.623

Same assay, conditions: first compound 0.3162 µM; main component drawn

Row | Cell Line | relative viability
113 | NCI-H2405 | 0.312
114 | SW 1573 | 0.302
115 | NCI-H1395 | 0.9
116 | 201T | 0.862
117 | NCI-H1915 | 0.325
118 | HCC-827 | 0.599
119 | LXF-289 | 0.332
120 | NCI-H2347 | 0.51
121 | NCI-H650 | 0.456
122 | CAL-12T | 0.235
123 | NCI-H1651 | 0.236
124 | EPLC-272H | 0.308
125 | NCI-H23 | 0.127
126 | NCI-H1792 | 0.228

Same assay, conditions: first compound 1 µM; main component drawn

Row | Cell Line | relative viability
127 | NCI-H2405 | 0.306
128 | SW 1573 | 0.342
129 | NCI-H1395 | 0.382
130 | 201T | 0.753
131 | NCI-H1915 | 0.167
132 | HCC-827 | 0.233
133 | LXF-289 | 0.162
134 | NCI-H2347 | 0.478
135 | NCI-H650 | 0.312
136 | CAL-12T | 0.244
137 | NCI-H1651 | 0.174
138 | EPLC-272H | 0.176
139 | NCI-H23 | 0.122
140 | NCI-H1792 | 0.221
